From patent publication US20220002288A1, “MONOBACTAM COMPOUNDS AND USE THEREFOR” (priority 2018, published 2022)
≈ marks a conversion by molar mass, not a printed value. Structures can show the parent of a compound that is named as a salt. Where two headings read alike, the source gives them in different places.

How the values were obtained:
Escherichia coli = experiment: In vitro antibacterial activity, minimum inhibitory concentration (MIC); assay type: cell-based; conditions: strain CLB30048, read-out: MIC
Description: (§1) Compounds: The compounds prepared in the above examples and comparative examples. All test compounds were dissolved and diluted with DMSO, and the final concentrations were prepared as 64, 32, 16, 8, 4, 2, 1, 0.5, 0.25, 0.125, 0.0625 μg/mL in the experiment.
(§2) Bacterial strains: 6 strains of Acinetobacter baumannii (codenames: HDBAB-YK4, HDBAB-YK7, HDBAB-YK12, HDBAB-YK16, HDBAB_OXA_7, ATCC 19606), 2 strains of Pseudomonas aeruginosa (codenames: HDBPA-YK9, HDBPA)-YK15), 1 strain of Escherichia coli (codename: CLB30048), all provided by HD Biosciences (Shanghai) Co., Ltd.
(§3) Medium: Trypticase soy agar (TSA) (BD BBL 211043), and Cation-adjusted Mueller Hinton broth (CAMHB) (BD BBL212322).
(§4) The bacteria used for the minimum inhibitory concentration (MIC) test were stored frozen at −80° C., and needed 2 days to recover before use. A small amount of frozen bacteria was scraped with a sterile inoculation loop for streak inoculation on a TSA solid medium petri dish. The dish was placed in an ordinary incubator at 35±2° C. for 20-24 hours. 5-10 Colonies with similar morphologies were picked from the above-mentioned petri dish with a sterile inoculating loop for streak inoculation again on a TSA solid medium petri dish. The dish was then placed in an ordinary incubator at 35±2° C. for 20-24 hours.
(§5) 1.02×CAMHB liquid medium was taken out from a 4° C. refrigerator and placed at room temperature for preheating. 5-10 Individual bacterial colonies were picked from the solid petri dish of the above Section 2.1 and re-suspended in 500 μL of 0.9% NaCl, and then the OD600 was adjusted to 0.1-0.15 with a spectrophotometer. Then the bacteria were diluted 400 times with 1.02×CAMHB (two-step dilution method: firstly diluting 10 times, then diluting 40 times).
(§6) The number of inoculated bacteria can be obtained by counting the colonies on the petri dish (see Section 2.4).
(§7) One compound was arranged in each row of a 96-well test plate: the highest test concentration for each compound was 64 μg/mL, which was diluted by a factor of two.
(§8) Growth control (GC): 1.02×CAMHB and dimethyl sulfoxide (DMSO) containing bacterial inoculum, no compound.
(§9) Sterile control (SC): Containing 1.02×CAMHB and DMSO, no compound.
(§10) All test compounds were dissolved and diluted with DMSO. 50 μL of 3.2 mg/mL of each test compound was transferred to the initial well (A1-H1) of the dilution plate, and then 25 μL of DMSO was transferred to other wells. The test compounds were sequentially diluted by a factor of 2 from column 1 to column 11 (i.e. drawing 25 μL of test compound from column 1 to column 2 and mixing well, and then drawing 25 μL of test compound from column 2 to column 3 and mixing well, and then drawing 25 μL of test compound from column 3 to column 4 and mixing well, and so on, until diluting to column 11).
(§11) 2 μL of the compound was transferred from the compound plate to the corresponding well of the test plate. Meanwhile, 2 μL of 100% DMSO was transferred to the compound-free wells (the GC and SC wells).
(§12) 98 μL of the corresponding bacterial inoculum was added to the test plate (except for the SC well).
(§13) 98 μL of 1.02×CAMHB medium was added to the SC well of the test plate.
(§14) After the system was added, the test plate was covered with a sterile lid, centrifuged at 800 rpm for 30 seconds, then shaken on a plate shaker at 400 rpm for 1 minute for mixing well, and then placed in an incubator at 35±2° C. for 20 hours.
(§15) The inoculated bacteria were gradient diluted by 10 folds with the liquid medium, from 10^−1 to 10^−3. 100 μL of the above bacterial dilution was spread evenly on a TSA petri dish, 2 replicates for each dilution. After the medium was absorbed by TSA for 10 minutes, the petri dishes were reversed and incubated in an incubator at 35±2° C. for 24 hours.
(§16) A compound management system was turned on to check whether the barcode and compound arrangement of each test plate were correct. […]

Acinetobacter baumannii = experiment: as above; assay type: cell-based
Description: as §1, §2, §3, §4, §5, §6, §7, §8, §9, §10, §11, §12, §13, §14, §15, §16

Pseudomonas aeruginosa = experiment: as above; assay type: cell-based
Description: as §1, §2, §3, §4, §5, §6, §7, §8, §9, §10, §11, §12, §13, §14, §15, §16

[1] = Pharmacokinetics of the compounds in mice; assay type: in vivo, BALB/c mice; conditions: mouse, plasma, male BALB/c mice, single intravenous dose 2 mg/kg, plasma; for Vd: male, BALB/c, iv, 2 mg/kg
Source text: Animals: male BALB/c mice, SPF grade, purchased from Changzhou Cavens Experimental Animal Co., Ltd.; 16-24 g, license number: SCXK (Su)2016-0010; 2 to 3 days of adaptation period were given before the experiment.
Instruments: API 4500 High Performance Liquid Chromatograph Coupled Triple Quadrupole Mass Spectrometer, and Analyst QS A01.01 Chromatography Workstation were both purchased from AB SCIEX of the United States; Milli-Q ultrapure water device was purchased from Millipore; CF16R XII desktop high-speed refrigerated centrifuge was purchased From Hitachi Company; Qilinbeier Vortex-5 oscillator was purchased from IKA Company of German; electric heating constant-temperature water bath was purchased from Changzhou Guohua Electric Appliance Co., Ltd.; electric pipette was purchased from Thermo Company of American; and microanalysis balance was purchased from Shanghai Mettler Co., Ltd.
2 mg of the test compound was weighed, added to physiological saline, vortexed for 2 min, and ultrasonicated for 3 min, to prepare a test solution with a concentration of 0.2 mg/mL for intravenous administration.
A single dose of 2 mg/kg of the test compound was administered to BALB/c mice via the tail vein, the dose volume being 0.1 mL/10 g. At 5 min, 15 min, 30 min, 1 h, 2 h, 4 h after administration, blood samples were collected from the orbital venous plexus into heparinized EP tubes (0.6 mL), which were temporarily placed on crushed ice.
The samples were centrifuged at 8000 rpm for 5 min. 15 μL of upper plasma were transferred to a 96-well plate. 150 μL of methanol:acetonitrile (v/v=1:1) (containing 20 ng/mL tolbutamide) was added to 15 μL of plasma, shaken for 3 min, and centrifuged at 4500 rpm for 5 min. 100 μL of supernatant was taken to a 2 mL deep well plate. 100 μL of diluent (pure water) was added. The samples were shaken for 3 min, and centrifuged at 4500 rpm for 5 min. 180 μL of the supernatant was transferred to the sample plate. The content of the compound in the supernatant sample was analyzed by LC-MS/MS, and various pharmacokinetic parameters were calculated with WinNonlin software.

`CC1(C)[C@H](NC(=O)/C(=N\O[C@@H](COc2ccc(-c3ccc(NC(=O)[C@@H](N)CCCCN)nc3)cc2)C(=O)O)c2csc(N)n2)C(=O)N1OS(=O)(=O)O` [Example 5, (S)-2-((((Z)-1-(2-aminothiazol-4-yl)-2-(((S)-2,2-dimethyl-4-oxo-1-(sulfonyloxy)azetidin-3-yl)amino)-2-oxoethylene)amino)oxy)-3-(4-(6-((S)-2,6-diaminohexanamido)pyridin-3-yl)phenoxy)propionic Acid] gave an MIC (Escherichia coli) of 8 µg/mL (≈ 10.5 µM), an MIC (Acinetobacter baumannii; ATCC19606, strain ATCC 19606) of 8 µg/mL (≈ 10.5 µM) and an MIC (Acinetobacter baumannii; strain HDBAB-YK4) of 32 µg/mL (≈ 41.9 µM). For the same compound, the MIC (Acinetobacter baumannii; strain HDBAB-YK7) was greater than 64 µg/mL, the MIC (Acinetobacter baumannii; strain HDBAB-YK12) was 4 µg/mL (≈ 5.24 µM) and the MIC (Acinetobacter baumannii; strain HDBAB-YK16) was 64 µg/mL (≈ 83.8 µM). It also gave an MIC (Acinetobacter baumannii; strain HDBAB_OXA_7) of 16 µg/mL (≈ 20.9 µM), an MIC (Pseudomonas aeruginosa; strain HDBPA-YK9) of 32 µg/mL (≈ 41.9 µM) and an MIC (Pseudomonas aeruginosa; strain HDBPA-YK15) greater than 64 µg/mL.

In the case of `C[n+]1cc(-c2ccc(OC[C@H](O/N=C(\C(=O)N[C@@H]3C(=O)N(OS(=O)(=O)[O-])C3(C)C)c3csc(N)n3)C(=O)O)cc2)ccc1NC(=O)[C@H](N)CCCCN` [Example 8], the MIC (Escherichia coli) is reported as 8 µg/mL (≈ 10.3 µM), the MIC (Acinetobacter baumannii; ATCC19606, strain ATCC 19606) is reported as 2 µg/mL (≈ 2.57 µM) and the MIC (Acinetobacter baumannii; strain HDBAB-YK4) is reported as 4 µg/mL (≈ 5.14 µM). The MIC (Acinetobacter baumannii; strain HDBAB-YK7) was 1 µg/mL (≈ 1.29 µM), the MIC (Acinetobacter baumannii; strain HDBAB-YK12) was 2 µg/mL (≈ 2.57 µM) and the MIC (Acinetobacter baumannii; strain HDBAB-YK16) was 16 µg/mL (≈ 20.6 µM). The MIC (Acinetobacter baumannii; strain HDBAB_OXA_7) was 8 µg/mL (≈ 10.3 µM), the MIC (Pseudomonas aeruginosa; strain HDBPA-YK9) was 16 µg/mL (≈ 20.6 µM) and the MIC (Pseudomonas aeruginosa; strain HDBPA-YK15) was greater than 64 µg/mL.

Compound `CC1(C)[C@H](NC(=O)/C(=N\O[C@@H](COc2ccc(-c3ccc(NC(=O)[C@@H](N)CO)nc3)cc2)C(=O)O)c2csc(N)n2)C(=O)N1OS(=O)(=O)O` [Example 7] has an MIC (Escherichia coli) of 64 µg/mL (≈ 88.6 µM), an MIC (Acinetobacter baumannii; ATCC19606, strain ATCC 19606) of 64 µg/mL (≈ 88.6 µM) and an MIC (Acinetobacter baumannii; strain HDBAB-YK4) greater than 64 µg/mL. For the same compound, the MIC (Acinetobacter baumannii; strain HDBAB-YK7) was greater than 64 µg/mL, the MIC (Acinetobacter baumannii; strain HDBAB-YK12) was 16 µg/mL (≈ 22.1 µM) and the MIC (Acinetobacter baumannii; strain HDBAB-YK16) was greater than 64 µg/mL. It also gave an MIC (Acinetobacter baumannii; strain HDBAB_OXA_7) greater than 64 µg/mL, an MIC (Pseudomonas aeruginosa; strain HDBPA-YK9) of 32 µg/mL (≈ 44.3 µM) and an MIC (Pseudomonas aeruginosa; strain HDBPA-YK15) greater than 64 µg/mL.

With `CC1(C)[C@H](NC(=O)/C(=N\O[C@@H](COc2ccc(-c3ccc4[nH]c(CN)nc4c3)cc2)C(=O)O)c2csc(N)n2)C(=O)N1OS(=O)(=O)O` [Example 11, (S)-3-(4-(2-(aminomethyl)-1H-benzo[d]imidazol-5-yl)phenoxy)-2-((((Z)-1-(2-aminothiazol-4-yl)-2-(((S)-2,2-dimethyl-4-oxo-1-(sulfonyloxy)azetidin-3-yl)amino)-2-oxoethylene)amino)oxy)propionic Acid] the MIC (Escherichia coli) was 32 µg/mL (≈ 46.5 µM), the MIC (Acinetobacter baumannii; ATCC19606, strain ATCC 19606) was greater than 64 µg/mL and the MIC (Acinetobacter baumannii; strain HDBAB-YK4) was greater than 64 µg/mL. The MIC (Acinetobacter baumannii; strain HDBAB-YK7) was greater than 64 µg/mL, the MIC (Acinetobacter baumannii; strain HDBAB-YK12) was 16 µg/mL (≈ 23.2 µM) and the MIC (Acinetobacter baumannii; strain HDBAB-YK16) was greater than 64 µg/mL. It also gave an MIC (Acinetobacter baumannii; strain HDBAB_OXA_7) greater than 64 µg/mL, an MIC (Pseudomonas aeruginosa; strain HDBPA-YK9) of 32 µg/mL (≈ 46.5 µM) and an MIC (Pseudomonas aeruginosa; strain HDBPA-YK15) greater than 64 µg/mL.

For `C[n+]1cc(-c2ccc(OC[C@H](O/N=C(\C(=O)N[C@@H]3C(=O)N(OS(=O)(=O)[O-])C3(C)C)c3csc(N)n3)C(=O)O)cc2)ccc1NC(=O)[C@@H](N)CCCCN` [Example 4, (S)-3-((Z)-2-(2-aminothiazol-4-yl)-2-(((S)-1-carboxy-2-(4-(6-((S)-2,6-diaminohexanamido)-1-methylpyridin-1-ium-3-yl)phenoxy)ethoxy)imino)acetylamino)-2,2-dimethyl-4-oxoazetidin-1-yl Sulfate], the Vd ([1]; read-out: VSS) was 0.73 L/kg, the Vd ([1]; read-out: Vd) was 0.88 L/kg and the AUC(0-inf) [1] was 813 ng·h/mL. It also gave an AUC(0-t) [1] of 751 ng·h/mL, a C0 [1] of 3010 ng/mL and a clearance [1] of 42.8 mL/min/kg. For the same compound, the half-life [1] was 13.8 min, the MIC (Escherichia coli) was 8 µg/mL and the MIC (Acinetobacter baumannii; ATCC19606, strain ATCC 19606) was 2 µg/mL. The MIC (Acinetobacter baumannii; strain HDBAB-YK4) was 2 µg/mL, the MIC (Acinetobacter baumannii; strain HDBAB-YK7) was 2 µg/mL and the MIC (Acinetobacter baumannii; strain HDBAB-YK12) was 4 µg/mL. It also gave an MIC (Acinetobacter baumannii; strain HDBAB-YK16) of 32 µg/mL, an MIC (Acinetobacter baumannii; strain HDBAB_OXA_7) of 16 µg/mL and an MIC (Pseudomonas aeruginosa; strain HDBPA-YK9) of 16 µg/mL. It also gave an MIC (Pseudomonas aeruginosa; strain HDBPA-YK15) greater than 64 µg/mL.
